In brackets after ≈: the same amount, converted by molar mass. Like-named read-outs stand apart in the source and are kept apart here. Where only a bound is given, the exact number is not on record here.

Holding throughout (format): cell-based
Test [1] concerns E. coli strain Mu890. The test is described as follows: Rapid colorimetric AST in spiked human whole blood / blood culture medium (colour change, near IR absorbance). The following applies: 37° C.; for Susceptibility of Mu890 (colorimetric assay / near IR absorption): CLSI susceptible and resistant breakpoints, 2.55 × 10^4 CFU/mL in wells, 24 hours; for Susceptibility of Mu890 (colour change of blood): rapid colorimetric AST, CLSI breakpoint concentrations, 96-well plate, up to 24 hours incubation. The source says:
(§1) The antibiotics concentration and the initial concentration of bacterial cells in the wells shown in FIG. 8A are tabulated in Table 3.

For test [2], the system named is E. coli strain Mu890. Description: Standard broth microdilution (BMD), turbidity. The following applies: validation of near IR experiment, 6×10^6 CFU/mL per well. As for the experimental part: This color change results from the growth and presence of viable bacteria. When bacteria are resistant to the given antibiotic concentration, the color change is clearly observed. […] Results were validated by comparing with the gold standard BMD (FIGS. 4A and 4B). The gold standard BDM requires 16 to 24 hours incubation of plates after isolation of pure bacteria from positive blood cultures. In this case, the BMD was done by subculturing a pure colony of Mu890 in 4 mL CAMHB for 3 hours, followed by OD-600 adjustment such that the final concentration of bacteria is 6×10^6 CFU/mL per well. The plate was incubated at 37° C. for 18 hours and the image was acquired (FIG. 4B).

The subject of test [3] is E. coli sample (positive blood culture). The test is described as follows: ChroMIC automated colorimetric MIC assay directly from positive blood culture. The conditions noted are these: for MIC: Escherichia coli. The procedure:
In order to prepare the contrast agent, sterile human whole blood (ZenBio, Research Triangle Park, N.C.) was stored at 4° C. and used within two weeks. […] For use as contrast, whole blood was diluted in sterile cation-adjusted Mueller Hinton broth (CAMHB; BD Biosciences, San Jose, Calif.) media (10% v/v).
Relating to an example colorimetric AST directly from positive blood culture —BacT/ALERT FA PLUS positive blood cultures were 500-fold diluted in CAMHB media and dispensed in the 96-well plate antibiotic panels. […] Final antibiotic concentrations ranged from approximately 0.03125 μg/mL to approximately 64 μg/mL along each row, with final dilution of blood cultures being 1000-fold. […] Wells H1, H9, and H10 are media-only negative controls, while wells H11 and H12 are no-antibiotic positive controls. […] ChroMIC ASTs were performed and compared (blinded) against both Vitek-2-determined MICs and vs. BMD. Each blood culture was also plated to retroactively determine inoculum size used.
Negative control wells with antibiotics and media only were allocated to ensure the sterility of media and antibiotics. Positive control wells were prepared to track bacterial growth without antibiotics and these controls were used in developing real-time automated analysis. After preparation of assays, the 96-well plates were covered with sterile sealing film (VWR International, Radnor, Pa.) and incubated at 37° C. for 18 hours with imaging as described below.
Example instruments used with the example colorimetric AST are disclosed herein. Four computer-controlled cameras (Raspberry Pi HQ) were connected to an ArduCam multicamera board in a Raspberry Pi 4B computer running the latest version of Raspian operating system. Within an incubator held at approximately 37° C., 96-well microtiter plates were held in 3D-printed holders, approximately 10 cm above the camera. A low distortion wide-angle lens was used to image microtiter plates from below, with LED illumination from above. Software collected images once every 15 minutes from each active camera over an 18-hour period. Images were analyzed both visually and by computer for red, green, and blue channel pixel intensities. Automated well detection was performed with OpenCV in python based on color value and the two most significant principal color components within each well were calculated and used to determine positive versus negative bacterial growth. […] SVM-derived probabilities were used to determine growth or no growth in each well. The left—most well in each row maintaining bright red color (no growth) was taken as the MIC.
ChroMIC assays were automated to acquire one image every 15 minutes over 18 hours. […] Wells can be automatically detected based on their color and the mean RGB color values can be taken from the average color of a 40×40 pixel area around each well centroid. Principal components using RGB values as input dimensions can be calculated for the wells in each image. […] Wells H1-H10 on each image and all wells (A1-H12) from the first hour (5 images—all before growth occurs) can be used as negative control wells. […] Since PCs are calculated for each image, all positive and negative controls are rotated into the current image PC space. A grid search can be performed to find the optimal SVM discriminant (FIG. 20B), and probabilities are used to assign growth (+) or no growth (−) for each well.
FIGS. 20-23 show aspects of automated real-time ChroMIC assay of an E. coli sample. An example of acquired images at different times (0 hours, 4 hours, 6 hours, 8 hours, 10 hours, 12 hours and 18 h) is shown in FIG. 19. […] This enables labels and MIC determinations for each antibiotic at each time point.

For test [4], the system named is P. aeruginosa strain PA46. Description: Standard broth microdilution (BMD). The following applies: 6×10^6 CFU/mL per well. The procedure:
as §1
The bacterial density in the standard BMD method was 6×10^6 CFU/mL per well before incubation, while the bacterial density in the colorimetric assay before the incubation is given in Table 3.

Setting [5] is: real-time Bayesian updated MIC, 4 hour, read-out: MIC (4 hour).
The mark [6] stands for this setting: real-time Bayesian updated MIC, 6 hour, read-out: MIC (6 hour).
Setting [7] is: real-time Bayesian updated MIC, 8 hour, read-out: MIC (8 hour).
Where [8] appears, read: real-time Bayesian updated MIC, 10 hour, read-out: MIC (10 hour).
The mark [9] stands for this setting: real-time Bayesian updated MIC, 12 hour, read-out: MIC (12 hour).
The mark [10] stands for this setting: real-time Bayesian updated MIC, 16 hour, read-out: MIC (16 hour).

`C[C@@H](O)[C@H]1C(=O)N2C(C(=O)O)=C(S[C@@H]3CN[C@H](C(=O)N(C)C)C3)[C@H](C)[C@H]12` [Meropenem, meropenem]: in the test with E. coli strain Mu890 [1], the “Susceptibility of Mu890 (colorimetric assay / near IR absorption)” value was “susceptible”. In the test on E. coli strain Mu890 [2], the “Susceptibility of Mu890 (standard BMD method)” value is on record as “susceptible”. Moreover, the MIC in test [3] (setting [5]) is 0.0625 µg/mL (≈ 0.163 µM); in test [3] (setting [6]), not above 0.0312 µg/mL; in test [3] (setting [7]), not above 0.0312 µg/mL; in test [3] (setting [8]), not above 0.0312 µg/mL; in test [3] (setting [9]), not above 0.0312 µg/mL; in test [3] (setting [10]) it was not above 0.0312 µg/mL.
For `C[C@H]1COc2c(N3CCN(C)CC3)c(F)cc3c(=O)c(C(=O)O)cn1c23` [Levofloxacin, levofloxacin], the minimal inhibitory concentration (MIC) in test [3] (setting [5]), in test [3] (setting [6]), in test [3] (setting [7]), in test [3] (setting [8]), in test [3] (setting [9]) and in test [3] (setting [10]) was not above 0.0312 µg/mL in each case.
In the case of `CO/N=C(\C(=O)N[C@@H]1C(=O)N2C(C(=O)[O-])=C(C[N+]3(C)CCCC3)CS[C@H]12)c1csc(N)n1` [Cefepime, cefepime], the MIC in test [3] (4 h, read-out: MIC (4 hour)) is not above 0.0312 µg/mL; in test [3] (6 h, read-out: MIC (6 hour)), not above 0.0312 µg/mL; in test [3] (8 h, read-out: MIC (8 hour)) it was not above 0.0312 µg/mL; in test [3] (10 h, read-out: MIC (10 hour)), not above 0.0312 µg/mL; in test [3] (12 h, read-out: MIC (12 hour)), not above 0.0312 µg/mL; in test [3] (16 h, read-out: MIC (16 hour)), not above 0.0312 µg/mL.
On to `NCC[C@H](O)C(=O)N[C@@H]1C[C@H](N)[C@@H](O[C@H]2O[C@H](CN)[C@@H](O)[C@H](O)[C@H]2O)[C@H](O)[C@H]1O[C@H]1O[C@H](CO)[C@@H](O)[C@H](N)[C@H]1O` [Amikacin, amikacin], for which the minimum inhibitory concentration (MIC) came out at 1 µg/mL (≈ 1.71 µM) in test [3] (setting [5]); 1 µg/mL (≈ 1.71 µM) in test [3] (setting [6]); 1 µg/mL (≈ 1.71 µM) in test [3] (setting [7]); 2 µg/mL (≈ 3.42 µM) in test [3] (setting [8]); 2 µg/mL (≈ 3.42 µM) in test [3] (setting [9]); 2 µg/mL (≈ 3.42 µM) in test [3] (setting [10]).
As for gentamicin, the “MIC (4 hour)” value in test [3] (real-time Bayesian updated MIC, 4 hour) was 0.5 µg/mL. The “MIC (6 hour)” value in test [3] (real-time Bayesian updated MIC, 6 hour) was found to be 0.5 µg/mL. Also, the “MIC (8 hour)” value in test [3] (real-time Bayesian updated MIC, 8 hour) stood at 0.5 µg/mL. In addition, in test [3] (real-time Bayesian updated MIC, 10 hour), the “MIC (10 hour)” value turned out to be 1 µg/mL. The “MIC (12 hour)” value in test [3] (real-time Bayesian updated MIC, 12 hour) was 1 µg/mL. In test [3] (real-time Bayesian updated MIC, 16 hour), the “MIC (16 hour)” value is 1 µg/mL.
`Cc1nnc(SCC2=C(C(=O)O)N3C(=O)[C@@H](NC(=O)Cn4cnnn4)[C@H]3SC2)s1` [cefazolin]: in test [4], the “Susceptibility of PA46 (standard BMD method)” value is given as “resistant”.
On to `CC(C)(O/N=C(\C(=O)N[C@@H]1C(=O)N2C(C(=O)[O-])=C(C[n+]3ccccc3)CS[C@H]12)c1csc(N)n1)C(=O)O` [Ceftazidime, ceftazidime], for which the “Susceptibility of Mu890 (colorimetric assay / near IR absorption)” value in the test on E. coli strain Mu890 [1] is recorded as “susceptible”. Also, the “Susceptibility of Mu890 (colour change of blood)” value in the test on E. coli strain Mu890 [1] is “sensitive”. In the test with E. coli strain Mu890 [2], the “Susceptibility of Mu890 (standard BMD method)” value is “susceptible”. Moreover, the minimal inhibitory concentration (MIC) in test [3] (setting [5]) was determined as 0.25 µg/mL (≈ 0.457 µM); in test [3] (setting [6]) it was 0.25 µg/mL (≈ 0.457 µM); in test [3] (setting [7]) it was 0.125 µg/mL (≈ 0.229 µM); in test [3] (setting [8]), 0.125 µg/mL (≈ 0.229 µM); in test [3] (setting [9]), 0.125 µg/mL (≈ 0.229 µM); in test [3] (setting [10]), 0.125 µg/mL (≈ 0.229 µM).
On to `NC[C@H]1O[C@H](O[C@H]2[C@H](O)[C@@H](O[C@H]3O[C@H](CO)[C@@H](O)[C@H](N)[C@H]3O)[C@H](N)C[C@@H]2N)[C@H](N)C[C@@H]1O` [Tobramycin, tobramycin], for which, in the test with E. coli strain Mu890 [1], the “Susceptibility of Mu890 (colorimetric assay / near IR absorption)” value was “susceptible”. For the same compound, the “Susceptibility of Mu890 (colour change of blood)” value in the test on E. coli strain Mu890 [1] is reported as “sensitive”. In addition, the “Susceptibility of Mu890 (standard BMD method)” value in the test on E. coli strain Mu890 [2] is “susceptible”. For the same compound, the MIC in test [3] (setting [5]) was found to be 0.5 µg/mL (≈ 1.07 µM); in test [3] (setting [6]), 0.5 µg/mL (≈ 1.07 µM); in test [3] (setting [7]), 0.5 µg/mL (≈ 1.07 µM); in test [3] (setting [8]) it was 0.5 µg/mL (≈ 1.07 µM); in test [3] (setting [9]) it was 1 µg/mL (≈ 2.14 µM); in test [3] (setting [10]) it was 1 µg/mL (≈ 2.14 µM).

The values above are taken from patent US20230183774A1, “COLORIMETRIC ASSAY FOR HIGH THROUGHPUT, FACILE AND RAPID ANTIMICROBIAL SUSCEPTIBILITIES TESTING” (Georgia Tech Research Corporation, priority 2021, published 2023).
